In patent publication US20090163528A1, “Pharmaceutical composition having analgesic effects” (priority 2004, published 2009):
Structures can show the parent of a compound that is named as a salt. Where two headings read alike, the source gives them in different places.

What was measured:
Kunming breed mice [1] = type: in vivo
mice [2] = type: in vivo; settings: Table 5
Excerpt: The division of animal groups, content of test drugs, dose and administration is the same as those in the body twisting test, while the contra positive is pethidine hydrochloride only.
In the course of the test, the mice show up reactions of hindleg sucking, hindleg kicking, skipping, etc; take the reaction of hindleg sucking as the pain indicator.

Kunming breed mice [3] = type: in vivo; settings: mesaconitine 0.5 mg/kg stomach perfusion
[4] = Toxicity test of the active medical ingredients (previous acute toxicology); settings: mouse, in vivo
Kunming breed mice [5] = test: Body twisting test, mixtures of fuziline and hypaconitine in different proportions (Test 6); type: in vivo; settings: hypaconitine 1 mg/kg stomach perfusion
mice [6] = test: Toxicity test of the active medical ingredients (previous acute toxicology); settings: mouse, in vivo
Kunming breed mice [7] = test: Body twisting test, mixtures of fuziline and benzoylmesaconitine in different proportions (Test 7); type: in vivo; settings: benzoylmesaconitine 100 mg/kg stomach perfusion
[8] = Table 3, 0.25 mg/kg stomach perfusion
[9] = Table 3, 0.5 mg/kg stomach perfusion
[10] = Table 3, 1 mg/kg stomach perfusion
[11] = Table 3, 2 mg/kg stomach perfusion
[12] = Table 3, 4 mg/kg stomach perfusion
[13] = Table 3, 50 mg/kg stomach perfusion
[14] = Table 3, 100 mg/kg stomach perfusion
[15] = Table 3, 200 mg/kg stomach perfusion
[16] = Table 3, 400 mg/kg stomach perfusion

## COC[C@]12CN(C)[C@H]3C4C(OC)C1C3(C(OC)CC2O)C1C[C@@]2(O)C(OC(=O)c3ccccc3)C1[C@]4(OC(C)=O)[C@@H](O)C2OC (stereo partly shown) [Mesaconitine, mesaconitine]
Kunming breed mice [1]; [8]
  Body twisting number ( χ ± SD): 33.6 ± 11.5
  Pain suppression rate: 14.50%
Kunming breed mice [1]; [9]
  Body twisting number ( χ ± SD): 20.0 ± 9.6^ΔΔ
  Pain suppression rate: 49.11%
Kunming breed mice [1]; [10]
  Body twisting number ( χ ± SD): 21.8 ± 12.6^ΔΔ
  Pain suppression rate: 44.53%
Kunming breed mice [1]; [11]
  Body twisting number ( χ ± SD): 19.3 ± 10.0^ΔΔ
  Pain suppression rate: 50.89%
Mice [2]; 12.5 mg/kg stomach perfusion, 15 minutes
  Increasing rate of threshold pain after administration ( X ± SD): 12.1 ± 45.0%
Mice [2]; 12.5 mg/kg stomach perfusion, 30 minutes
  Increasing rate of threshold pain after administration ( X ± SD): −6.3 ± 31.4%
Mice [2]; 12.5 mg/kg stomach perfusion, 60 minutes
  Increasing rate of threshold pain after administration ( X ± SD): −0.5 ± 38.7%
Mice [2]; 12.5 mg/kg stomach perfusion, 90 minutes
  Increasing rate of threshold pain after administration ( X ± SD): −11.3 ± 34.2%
Mice [2]; 12.5 mg/kg stomach perfusion, 120 minutes
  Increasing rate of threshold pain after administration ( X ± SD): 11.1 ± 38.8%
Mice [2]; 25 mg/kg stomach perfusion, 15 minutes
  Increasing rate of threshold pain after administration ( X ± SD): 39.7 ± 76.6%
Mice [2]; 25 mg/kg stomach perfusion, 30 minutes
  Increasing rate of threshold pain after administration ( X ± SD): 59.2 ± 146.9%
Mice [2]; 25 mg/kg stomach perfusion, 60 minutes
  Increasing rate of threshold pain after administration ( X ± SD): 37.2 ± 88.5%
Mice [2]; 25 mg/kg stomach perfusion, 90 minutes
  Increasing rate of threshold pain after administration ( X ± SD): 61.3 ± 82.1^Δ %
Mice [2]; 25 mg/kg stomach perfusion, 120 minutes
  Increasing rate of threshold pain after administration ( X ± SD): 80.7 ± 100.1%
Mice [2]; 50 mg/kg stomach perfusion, 15 minutes
  Increasing rate of threshold pain after administration ( X ± SD): 21.4 ± 42.9%
Mice [2]; 50 mg/kg stomach perfusion, 30 minutes
  Increasing rate of threshold pain after administration ( X ± SD): 14.4 ± 34.7%
Mice [2]; 50 mg/kg stomach perfusion, 60 minutes
  Increasing rate of threshold pain after administration ( X ± SD): 7.9 ± 37.8%
Mice [2]; 50 mg/kg stomach perfusion, 90 minutes
  Increasing rate of threshold pain after administration ( X ± SD): 30.4 ± 44.1^Δ %
Mice [2]; 50 mg/kg stomach perfusion, 120 minutes
  Increasing rate of threshold pain after administration ( X ± SD): 36.0 ± 42.6%
Mice [2]; mesaconitine 100 mg/kg stomach perfusion, 15 minutes
  Increasing rate of threshold pain after administration ( X ± SD): 124.8 ± 165.4%
Mice [2]; mesaconitine 100 mg/kg stomach perfusion, 30 minutes
  Increasing rate of threshold pain after administration ( X ± SD): 97.7 ± 184.6%
Mice [2]; mesaconitine 100 mg/kg stomach perfusion, 60 minutes
  Increasing rate of threshold pain after administration ( X ± SD): 64.3 ± 149.5%
Mice [2]; mesaconitine 100 mg/kg stomach perfusion, 90 minutes
  Increasing rate of threshold pain after administration ( X ± SD): 108.3 ± 105.0^ΔΔ %
Mice [2]; mesaconitine 100 mg/kg stomach perfusion, 120 minutes
  Increasing rate of threshold pain after administration ( X ± SD): 49.0 ± 52.9%
Kunming breed mice [3]
  Pain suppression rate: 62.6%
[4]; LD50
  LD50: 6.41 mg/kg

## COC[C@@]12CCC(OC)C34C5C[C@@]6(O)C(OC(=O)c7ccccc7)C5[C@@](OC(C)=O)(C(C(OC)C31)[C@@H]4N(C)C2)[C@@H](O)C6OC (stereo partly shown) [Hypaconitine, hypaconitine]
Kunming breed mice [1]; [9]
  Body twisting number ( χ ± SD): 27.6 ± 11.5
  Pain suppression rate: 29.77%
Kunming breed mice [1]; [10]
  Body twisting number ( χ ± SD): 24.5 ± 9.8
  Pain suppression rate: 37.66%
Kunming breed mice [1]; [11]
  Body twisting number ( χ ± SD): 23.6 ± 10.9
  Pain suppression rate: 39.95%
Kunming breed mice [1]; [12]
  Body twisting number ( χ ± SD): 2.8 ± 4.5
  Pain suppression rate: 92.88%
Mice [2]; 1 mg/kg stomach perfusion, 15 minutes
  Increasing rate of threshold pain after administration ( X ± SD): −16.6 ± 31.9%
Mice [2]; 1 mg/kg stomach perfusion, 30 minutes
  Increasing rate of threshold pain after administration ( X ± SD): −31.9 ± 24.2%
Mice [2]; 1 mg/kg stomach perfusion, 60 minutes
  Increasing rate of threshold pain after administration ( X ± SD): −18.1 ± 34.5%
Mice [2]; 1 mg/kg stomach perfusion, 90 minutes
  Increasing rate of threshold pain after administration ( X ± SD): −13.0 ± 14.9%
Mice [2]; 1 mg/kg stomach perfusion, 120 minutes
  Increasing rate of threshold pain after administration ( X ± SD): 28.3 ± 56.3%
Mice [2]; 2 mg/kg stomach perfusion, 15 minutes
  Increasing rate of threshold pain after administration ( X ± SD): 72.4 ± 57.6 %
Mice [2]; 2 mg/kg stomach perfusion, 30 minutes
  Increasing rate of threshold pain after administration ( X ± SD): 36.0 ± 53.4%
Mice [2]; 2 mg/kg stomach perfusion, 60 minutes
  Increasing rate of threshold pain after administration ( X ± SD): 17.3 ± 56.1%
Mice [2]; 2 mg/kg stomach perfusion, 90 minutes
  Increasing rate of threshold pain after administration ( X ± SD): 15.3 ± 60.1%
Mice [2]; 2 mg/kg stomach perfusion, 120 minutes
  Increasing rate of threshold pain after administration ( X ± SD): −13.0 ± 33.1%
Mice [2]; 4 mg/kg stomach perfusion, 15 minutes
  Increasing rate of threshold pain after administration ( X ± SD): 142.7 ± 139.4 %
Mice [2]; 4 mg/kg stomach perfusion, 30 minutes
  Increasing rate of threshold pain after administration ( X ± SD): 104.1 ± 137.4 %
Mice [2]; 4 mg/kg stomach perfusion, 60 minutes
  Increasing rate of threshold pain after administration ( X ± SD): 81.7 ± 100.0 %
Mice [2]; 4 mg/kg stomach perfusion, 90 minutes
  Increasing rate of threshold pain after administration ( X ± SD): 34.4 ± 59.3 %
Mice [2]; 4 mg/kg stomach perfusion, 120 minutes
  Increasing rate of threshold pain after administration ( X ± SD): 59.1 ± 55.6 %
Kunming breed mice [5]
  Pain suppression rate: 48.0%
[4]; 8.19 mg/kg, 95% of the confidence interval of LD50
  LD50: 10.9 to 15 mg/kg
[4]; 8.19 mg/kg, LD50, previous acute toxicology
  LD50: 12.8 mg/kg
[4]; LD50
  LD50: 12.8 mg/kg
Mice [6]
  dose with no mice dead: 8.19 mg/kg

## COC[C@]12CN(C)[C@H]3C4C(OC)C1C3(C(OC)CC2O)C1C[C@@]2(O)C(OC(=O)c3ccccc3)C1[C@]4(O)[C@@H](O)C2OC (stereo partly shown) [Benzoylmesaconitine, benzoylmesaconitine]
Kunming breed mice [1]; [13]
  Body twisting number ( χ ± SD): 27.2 ± 12.2
  Pain suppression rate: 20.70%
Kunming breed mice [1]; [14]
  Body twisting number ( χ ± SD): 27.4 ± 15.9
  Pain suppression rate: 20.12%
Kunming breed mice [1]; [15]
  Body twisting number ( χ ± SD): 21.0 ± 15.1
  Pain suppression rate: 38.78%
Kunming breed mice [1]; [16]
  Body twisting number ( χ ± SD): 20.4 ± 12.9
  Pain suppression rate: 40.52%
Mice [2]; 200 mg/kg stomach perfusion, 15 minutes
  Increasing rate of threshold pain after administration ( X ± SD): 22.1 ± 52.0%
Mice [2]; 200 mg/kg stomach perfusion, 30 minutes
  Increasing rate of threshold pain after administration ( X ± SD): 32.9 ± 45.1 %
Mice [2]; 200 mg/kg stomach perfusion, 60 minutes
  Increasing rate of threshold pain after administration ( X ± SD): 40.3 ± 76.4%
Mice [2]; 200 mg/kg stomach perfusion, 90 minutes
  Increasing rate of threshold pain after administration ( X ± SD): 46.0 ± 87.4%
Mice [2]; 200 mg/kg stomach perfusion, 120 minutes
  Increasing rate of threshold pain after administration ( X ± SD): 53.6 ± 93.9%
Mice [2]; 400 mg/kg stomach perfusion, 15 minutes
  Increasing rate of threshold pain after administration ( X ± SD): 41.3 ± 90.2%
Mice [2]; 400 mg/kg stomach perfusion, 30 minutes
  Increasing rate of threshold pain after administration ( X ± SD): 35.2 ± 57.2 %
Mice [2]; 400 mg/kg stomach perfusion, 60 minutes
  Increasing rate of threshold pain after administration ( X ± SD): 78.8 ± 104.0 %
Mice [2]; 400 mg/kg stomach perfusion, 90 minutes
  Increasing rate of threshold pain after administration ( X ± SD): 59.5 ± 88.5%
Mice [2]; 400 mg/kg stomach perfusion, 120 minutes
  Increasing rate of threshold pain after administration ( X ± SD): 53.7 ± 117.0%
Mice [2]; benzoylmesaconitine 100 mg/kg stomach perfusion, 15 minutes
  Increasing rate of threshold pain after administration ( X ± SD): −0.4 ± 33.8%
Mice [2]; benzoylmesaconitine 100 mg/kg stomach perfusion, 30 minutes
  Increasing rate of threshold pain after administration ( X ± SD): 13.7 ± 52.3%
Mice [2]; benzoylmesaconitine 100 mg/kg stomach perfusion, 60 minutes
  Increasing rate of threshold pain after administration ( X ± SD): 64.6 ± 76.7 %
Mice [2]; benzoylmesaconitine 100 mg/kg stomach perfusion, 90 minutes
  Increasing rate of threshold pain after administration ( X ± SD): 71.1 ± 104.5%
Mice [2]; benzoylmesaconitine 100 mg/kg stomach perfusion, 120 minutes
  Increasing rate of threshold pain after administration ( X ± SD): 106.2 ± 116.5%
Kunming breed mice [7]
  Pain suppression rate: 34.6%
Mice [6]
  maximum tolerance dose: 1000 mg/kg

## CCOC(=O)C1(c2ccccc2)CCN(C)CC1 [Pethidine hydrochloride, pethidine hydrochloride, reference compound]
Kunming breed mice [1]; mouse, in vivo, 40 mg/kg
  Body twisting number ( χ ± SD): 0 ± 0
Kunming breed mice [1]; mouse, in vivo, 40 mg/kg, hydrochloride
  Pain suppression rate: 100%
